Experimental data taken from patent US6420338B1, “Inhibition of the Src kinase family pathway as a method of treating HBV infection and hepatocellular carcinoma” (New York University Medical Center, priority 1997, dated 2002).

System: c-Src
Assay: c-Src immunoprecipitation in vitro kinase assay (auto-phosphorylation and enolase trans-phosphorylation)
Assay type: cell-based
Conditions: serum-starved NIH 3T3 cells; PDGF 100 ng/ml for 5 min
Method: FIGS. 1A-1C Serum-starved NIH 3T3 cells were infected with AdCMV-X or -Xo viruses, c-Src or c-Fyn was immunoprecipitated, the pellet washed and assayed by incubation with the substrate enolase and [γ-^32P] ATP. Products were resolved by SDS-10%-PAGE then visualized and quantitiated by PhosphorImage analysis. c-Src (FIG. 1A) or c-Fyn (FIG. 1B) were immunoprecipitated 8 h p.i. from NIH 3T3 cell lysates expressing HBx or HBxo. Where indicated, cells were incubated with PDGF (100 ng/ml) for 5 min. (FIG. 1C) Transfected HBx activates c-Src in the cytoplasm. Chang cells were transfected with 10 μg pCMV-Xo (HBxo), PCMV-X (wt HBx) or pCMV-XNLS (nuclear HBx) expression plasmids, serum-starved for 24 h, c-Src immunoprecipitated and subjected to an in vitro trans-phosphorylation assay, then analyzed as above. […]
Src kinase assays were carried out essentially as described (Kypta et al., 1990, Cell 62:481-492). […] Src and Fyn kinase activity were measured by immunoprecipitating either Src (1 μg anti-Src antibodies) or Fyn (1 μg/ml anti-Fyn antibodies) from equal amounts of cell lysate. […] For the reactions containing the Src peptide substrate, TCA was added to a final concentration of 20%, an aliquot was spotted onto phosphocellulose paper (UBI), the filters were washed 3×5 minutes in 0.75% phosphoric acid and once in acetone, dried and analyzed by scintillation counting. […]

PDGF
activation of c-Src (auto- and trans-phosphorylation): 3-4 fold
